One molecule from US20250000940A1, “USE OF FRUCTUS LYCII GLUCOPEPTIDE” (NINGXIA QITAI TECHNOLOGY CO., LTD., priority 2021, published 2025) can be followed below.

Assay type in all cases: in vivo, Kunming mice
Assay [1] concerns MPTP model mice. As to the kind of experiment: CatWalk gait analysis in MPTP model mice. The settings on record: intragastric for 2 weeks after modeling, 30 mg/kg (rasagiline 1 mg/kg), vs. MPTP group, n=6, FIG. 4-7.
Source text: Instruction: CatWalk gait analysis is a system for analyzing the gait of rodents, including the balance maintenance ability, the use of limbs and the stability analysis of movement state and gait. The main accessories include built-in red LED light panel and green fluorescent glass panel, high-frequency camera under the glass panel, image transmission system and computer software and hardware. Before inspection, the camera height will be adjusted to 60 cm, the effective length and width of the runway will be delimited in the software, and the gain of the camera will be set to 28.12 dB. The process of each mouse passing through the glass plate smoothly was recorded at room temperature, and the longest time was set to 10 s, that is, the data was valid if the mouse passed through the set distance within 10 s. The principle of recording is that the paw prints of mice are illuminated by the fluorescent reflection of the fluorescent lamp in the glass panel, captured by the camera below and transmitted to the computer, and the recorded video data are statistically analyzed by the software of the system. According to the location of paw print, the pressure of paw on the glass panel, the distance between different paw prints, the velocity of mouse gait and the regularity of gait, the gait of mice was qualitatively and quantitatively analyzed. […]
The test system of assay [2] is MPTP model mice. As to the kind of experiment: Pole-climbing test in MPTP model mice. The settings on record: intragastric for 2 weeks after modeling, 30 mg/kg (rasagiline 1 mg/kg), vs. MPTP group, n=6, FIG. 2. On the procedure: Administration method: the mice were randomly divided into 6 groups with 6 mice in each group, i.e., the control group, the MPTP model group (intraperitoneal injection of MPTP, 30 mg/kg, established after five days of administration and two days of rest), the MPTP+Fructus lycii extract (water extraction) group (administration after modeling, 30 mg/kg, intragastric administration for two weeks), the MPTP+Fructus lycii polysaccharide group (administration after modeling, 30 mg/kg, intragastric administration for two weeks), the MPTP+Fructus lycii glucopeptide group (administration after modeling, 30 mg/kg, intragastric administration for 2 weeks), the MPTP+rasagiline group (administration after modeling, 1 mg/kg, intragastric administration for 2 weeks). Instruction: the pole-climbing test is a behavioral test to record the time difference of mice on the pole so as to detect the limb movement coordination of mice. The whole experiment was completed in a quiet and dark environment. The pole was composed of an iron frame with a diameter of 1 cm and a height of 60 cm and a small ball with a diameter of 1.5 cm fixed on its top. […] The time required for the mice to climb to the bottom from the beginning was recorded. If the time exceeded 1 minute, it was recorded as 1 minute. Each mouse was tested for 5 rounds each time, and the results were expressed as the average values.

In assay [3] the test system is MPTP model mice. As to the kind of experiment: Rotarod test in MPTP model mice. The settings on record: intragastric for 2 weeks after modeling, 30 mg/kg (rasagiline 1 mg/kg), vs. MPTP group, n=6, FIG. 3. (In general: In the rotarod test animals must keep their balance on a rotating rod.)
Procedure: Instruction: rotarod test was used to detect the motor coordination ability of mice by recording the time of the mice on the cylindrical rotarod using the rotarod fatigue apparatus. The test was conducted in a quiet and dark environment. The rotarod fatigue apparatus can accommodate five mice at a time for the test. Each mouse has a separate track, with a connected computer software for recording the time when the mouse falls. When the mouse rotates passively with the rotarod for more than two consecutive circles, the timing should also be stopped. Before restraint stress, the mice were trained for a week in advance to adapt, and each mouse was trained for three rounds every time. After restraint stress, the mice were detected once a week, and the parameter was set at a speed ramp from 5 r/min to 30 r/min at a constant rate within 5 min. The time of the mice on the rotarod within 5 min was recorded, and the time exceeding 5 min was recorded as 5 min. Each mouse was detected for 3 rounds each time, and the average value was calculated. The test interval of each group of mice was at least 30 min. Before each change of the mice, the apparatus was cleaned with 75% ethanol to remove the odor before the next group of test.

`C#CCN[C@@H]1CCc2ccccc21` [rasagiline, Rasagiline]: in the assay with MPTP model mice [1], the “gait behavior (average speed, maximum variation, cadence, number of steps)” value was “significantly restore the gait behavior disorder”. Further, in the assay on MPTP model mice [2], the “pole-climbing time (time to climb from top to bottom of the pole)” value is on record as “significantly shorten the pole-climbing time”. In addition, the “on-rod time (anti-fatigue time on the rotarod)” value in the assay with MPTP model mice [3] is on record as “significantly restore the on-rod time”.
